From patent publication US20240317723A1, “SUBSTITUTED AMINO AZA-HETEROARYL COMPOUNDS AS INHIBITORS OF THE HAEMATOPOIETIC PROGENITOR KINASE 1 (HPK1)” (priority 2021, published 2024)

Assays:
Lck (h) = Lck (h) (Homo sapiens, UniProt P06239); assay: Lck Human STE Kinase Enzymatic Radiometric Assay; assay type: biochemical; details: for IC50: radiometric, [gamma-33P]-ATP, Cdc2 peptide substrate, read-out: Lck IC50, nM Range*
Procedure: (b) Lck Human STE Kinase Enzymatic Radiometric Assay
Lck (h) is incubated with 50 mM Tris pH 7.5, 0.1 mM EGTA, 0.1 mM Na3VO4, 250 uM KVEKIGEGTYGVVYK (Cdc2 peptide), 10 mM MgAcetate and [gamma-33P]-ATP (specific activity and concentration as required). The reaction is initiated by the addition of the Mg/ATP mix. After incubation for 40 minutes at room temperature, the reaction is stopped by the addition of phosphoric acid to a concentration of 0.5%. 10 uL of the reaction is then spotted onto a P30 filtermat and washed four times for 4 minutes in 0.425% phosphoric acid and once in methanol prior to drying and scintillation counting. For more details on the kinase assay procedures see: Gao, Y. et. al.; Biochem J., 451 (2): 313-328, 2013.
In some embodiments the presence of substituents on monocyclic Cy^2 rings or when Cy^2 is a bicyclic ring (unsubstituted or substituted) provides compounds with improved selectivity for inhibition of HPK1 vs Lck (see, for example, Table 3 and Table 4).

[1] = biological target: T1, Recombinant (1-346) HPK1 (h) (Homo sapiens, UniProt Q92918); assay: HPK1 Human STE Kinase Enzymatic Radiometric Assay; assay type: biochemical; details: [gamma-33P]-ATP, myelin basic protein substrate, read-out: HPK1 IC50 nM Range*
T1 construct: Recombinant (1-346) HPK1 (h) is incubated with 8 mM MOPS pH 7.0
T1 sequence (Q92918 1-346): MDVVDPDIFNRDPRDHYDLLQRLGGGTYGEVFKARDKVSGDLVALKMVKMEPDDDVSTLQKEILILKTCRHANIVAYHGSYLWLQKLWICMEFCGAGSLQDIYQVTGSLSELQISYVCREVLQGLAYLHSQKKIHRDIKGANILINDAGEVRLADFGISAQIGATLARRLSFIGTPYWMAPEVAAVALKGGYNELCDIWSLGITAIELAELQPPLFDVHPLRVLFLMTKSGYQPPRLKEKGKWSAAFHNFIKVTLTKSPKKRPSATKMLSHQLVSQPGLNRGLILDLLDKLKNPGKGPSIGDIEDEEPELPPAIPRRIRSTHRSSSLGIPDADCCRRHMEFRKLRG
Procedure: (a) HPK1 Human STE Kinase Enzymatic Radiometric Assay
A stock solution of 10 mM of test compound is prepared in DMSO. The compound plate was prepared by 3-fold and 9-point serial dilutions. Recombinant (1-346) HPK1 (h) is incubated with 8 mM MOPS pH 7.0, 0.2 mM EDTA, 0.33 mg/mL myelin basic protein, 10 mM MgAcetate and [gamma-33P]-ATP (specific activity and concentration as required). The reaction is initiated by the addition of the Mg/ATP mix. After incubation for 40 minutes at RT, the reaction is stopped by the addition of phosphoric acid to a concentration of 0.5%. 10 uL of the reaction is then spotted onto a P30 filtermat and washed four times for 4 minutes in 0.425% phosphoric acid and once in methanol prior to drying and scintillation counting. For more details of kinase assay protocols, see: Gao, Y. et. al.; Biochem J. 451 (2): 313-328, 2013.

Lck (h), sequence (P06239 whole entry): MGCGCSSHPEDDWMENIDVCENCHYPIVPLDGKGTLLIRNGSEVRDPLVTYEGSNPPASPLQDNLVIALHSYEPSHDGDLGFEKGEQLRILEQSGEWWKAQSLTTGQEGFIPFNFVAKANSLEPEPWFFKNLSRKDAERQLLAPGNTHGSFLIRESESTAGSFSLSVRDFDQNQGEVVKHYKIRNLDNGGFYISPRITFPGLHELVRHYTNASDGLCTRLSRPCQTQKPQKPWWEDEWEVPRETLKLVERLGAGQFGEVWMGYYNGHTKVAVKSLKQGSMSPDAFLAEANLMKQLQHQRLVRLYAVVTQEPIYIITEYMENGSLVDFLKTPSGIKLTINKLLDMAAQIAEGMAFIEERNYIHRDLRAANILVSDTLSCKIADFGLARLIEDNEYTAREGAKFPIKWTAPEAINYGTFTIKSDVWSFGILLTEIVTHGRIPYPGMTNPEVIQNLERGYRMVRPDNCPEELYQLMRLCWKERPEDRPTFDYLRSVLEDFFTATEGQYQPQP

| Structure (SMILES) | IC50 (Lck (h)) [nM] | IC50 [1] [nM] | Selectivity (Lck (h); selectivity for inhibition of HPK1 vs Lck) |
| --- | --- | --- | --- |
| CC(C)[C@@H]1CN(c2ccc(-c3cnc(N)c(-c4ccc5c(c4)CCNC5=O)n3)cc2)CCN1C [Example I-38, (R)-6-(3-amino-6-(4-(3-isopropyl-4-methylpiperazin-1-yl)phenyl)pyrazin-2-yl)-3,4-dihydroisoquinolin-1(2H)-one] | 6 to 10 | 0.1 to 5 | – |
| CN(C)C1CCN(c2ccc(-c3cnc(N)c(-c4ccc5c(c4)CCNC5=O)n3)c(F)c2)C1 (centres unmarked) [Example I-20, 6-(3-amino-6-(4-(3-(dimethylamino)pyrrolidin-1-yl)-2-fluorophenyl)pyrazin-2-yl)-3,4-dihydroisoquinolin-1(2H)-one] | 11 to 20 | 0.1 to 5 | – |
| CC(C)C1CCCN(c2ccc(-c3cnc(N)c(-c4ccc5c(c4)CCNC5=O)n3)cc2)C1 (centres unmarked) [Example I-24, 6-(3-amino-6-(4-(3-isopropylpiperidin-1-yl)phenyl)pyrazin-2-yl)-3,4-dihydroisoquinolin-1(2H)-one] | 21 to 200 | 0.1 to 5 | – |
| CC(C)[C@H]1CN(c2ccc(-c3cnc(N)c(-c4ccc5c(c4)CCNC5=O)n3)c(F)c2F)CCO1 [Example I-16, (S)-6-(3-amino-6-(2,3-difluoro-4-(2-isopropylmorpholino)phenyl)pyrazin-2-yl)-3,4-dihydroisoquinolin-1(2H)-one] | 21 to 200 | 0.1 to 5 | – |
| CC(C)[C@@H]1CN(c2ccc(-c3cnc(N)c(-c4ccc5c(c4)CCNC5=O)n3)cc2)CCO1 [Example I-7, (R)-6-(3-amino-6-(4-(2-isopropylmorpholino)phenyl)pyrazin-2-yl)-3,4-dihydroisoquinolin-1(2H)-one] | 11 to 20 | 0.1 to 5 | – |
| C[C@@H]1COCCN1c1ccc(-c2cnc(N)c(-c3ccc4c(c3)CCNC4=O)n2)cc1 [Example I-11, (R)-6-(3-amino-6-(4-(3-methylmorpholino)phenyl)pyrazin-2-yl)-3,4-dihydroisoquinolin-1(2H)-one] | 11 to 20 | 0.1 to 5 | 170 |
| Nc1ncc(-c2ccc(C3CCN(CC(F)(F)F)CC3)cc2)nc1-c1ccc2c(c1)CCNC2=O [Example I-36, 6-(3-amino-6-(4-(1-(2,2,2-trifluoroethyl)piperidin-4-yl)phenyl)pyrazin-2-yl)-3,4-dihydroisoquinolin-1(2H)-one] | 11 to 20 | 0.1 to 5 | – |
| CC(C)[C@@H]1CN(c2ccc(-c3cnc(N)c(-c4cc5c(cc4F)C(=O)NCC5)n3)cc2)CCO1 [Example I-27, (R)-6-(3-amino-6-(4-(2-isopropylmorpholino)phenyl)pyrazin-2-yl)-7-fluoro-3,4-dihydroisoquinolin-1(2H)-one] | 6 to 10 | 0.1 to 5 | – |
| C[C@H]1COCCN1c1ccc(-c2cnc(N)c(-c3ccc4c(c3)CCNC4=O)n2)c(F)c1 [Example I-23, (S)-6-(3-amino-6-(2-fluoro-4-(3-methylmorpholino)phenyl)pyrazin-2-yl)-3,4-dihydroisoquinolin-1(2H)-one] | 11 to 20 | 0.1 to 5 | – |
| CC(C)N1C[C@@H]2C[C@]2(c2ccc(-c3cnc(N)c(-c4cc5c(cc4F)C(=O)NCC5)n3)cc2)C1 [Example I-48, 6-(3-amino-6-(4-((1S,5R)-3-isopropyl-3-azabicyclo[3.1.0]hexan-1-yl)phenyl)pyrazin-2-yl)-7-fluoro-3,4-dihydroisoquinolin-1(2H)-one] | 11 to 20 | 0.1 to 5 | – |
| CC(C)[C@H]1CN(c2ccc(-c3cnc(N)c(-c4cc5c(cc4F)C(=O)NCC5)n3)c(F)c2)CCO1 [Example I-30, (S)-6-(3-amino-6-(2-fluoro-4-(2-isopropylmorpholino)phenyl)pyrazin-2-yl)-7-fluoro-3,4-dihydroisoquinolin-1(2H)-one] | 21 to 200 | 0.1 to 5 | – |
| CN1CCN(c2ccc(-c3cnc(N)c(-c4ccc5c(c4)CCCNC5=O)n3)cc2)CC1 [Example I-50, 7-(3-amino-6-(4-(4-methylpiperazin-1-yl)phenyl)pyrazin-2-yl)-2,3,4,5-tetrahydro-1H-benzo[c]azepin-1-one] | 6 to 10 | 0.1 to 5 | – |
| CN1CCN(c2ccc(-c3cnc(N)c(-c4cc5c(cc4F)C(=O)NCC5)n3)cc2)CC1 [Example I-12, 6-(3-amino-6-(4-(4-methylpiperazin-1-yl)phenyl)pyrazin-2-yl)-7-fluoro-3,4-dihydroisoquinolin-1(2H)-one] | 11 to 20 | 0.1 to 5 | – |
| CN1C[C@H]2C[C@@]2(c2ccc(-c3cnc(N)c(-c4cc5c(cc4F)C(=O)NCC5)n3)cc2)C1 [Example I-45, 6-(3-amino-6-(4-((1R,5S)-3-methyl-3-azabicyclo[3.1.0]hexan-1-yl)phenyl)pyrazin-2-yl)-7-fluoro-3,4-dihydroisoquinolin-1(2H)-one] | 11 to 20 | 0.1 to 5 | – |
| Nc1ncc(-c2ccc(N3C[C@@H]4C[C@H]3CN4CC(F)(F)F)cc2)nc1-c1ccc2c(c1)CCNC2=O [Example I-34, 6-(3-amino-6-(4-((1S,4S)-5-(2,2,2-trifluoroethyl)-2,5-diazabicyclo[2.2.1]heptan-2-yl)phenyl)pyrazin-2-yl)-3,4-dihydroisoquinolin-1(2H)-1-one] | 11 to 20 | 0.1 to 5 | – |
| CC(C)[C@H]1CN(c2ccc(-c3cnc(N)c(-c4cc5c(cc4F)C(=O)NCC5)n3)cc2)CCO1 [Example I-28, (S)-6-(3-amino-6-(4-(2-isopropylmorpholino)phenyl)pyrazin-2-yl)-7-fluoro-3,4-dihydroisoquinolin-1(2H)-one] | 11 to 20 | 0.1 to 5 | – |
| CC(C)N1C[C@H]2C[C@@]2(c2ccc(-c3cnc(N)c(-c4cc5c(cc4F)C(=O)NCC5)n3)cc2)C1 [Example I-46, 6-(3-amino-6-(4-((1R,5S)-3-isopropyl-3-azabicyclo[3.1.0]hexan-1-yl)phenyl)pyrazin-2-yl)-7-fluoro-3,4-dihydroisoquinolin-1(2H)-one] | 11 to 20 | 0.1 to 5 | – |
